Source: PubChem BioAssay (NCI)
“And” between values parts separate entries of the source, which are not always exact repeats. Equal values may be shown once.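 1) Cells in 96-well plates. 2) Compound, 48 h, 5 concentrations. 3) Linear interpolation between surrounding doses. 4) Unreached endpoint = highest concentration. GI50 marks 50% less growth. TGI: total growth inhibition.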

Key:
Test in all cases: NCI anticancer screen, dose series, 48 h
SK-MEL-2 melanoma = tested on: SK-MEL-2 melanoma
OVCAR-8 ovarian = tested on: OVCAR-8 ovarian
NCI-H23 lung = tested on: NCI-H23 lung
HT29 colon = tested on: HT29 colon
OVCAR-4 ovarian = tested on: OVCAR-4 ovarian
786-0 renal = tested on: 786-0 renal
RPMI-8226 leukemia = tested on: RPMI-8226 leukemia
A549 NSCLC = tested on: A549 NSCLC
M14 melanoma = tested on: M14 melanoma
K-562 leukemia = tested on: K-562 leukemia

SMILES | GI50 (SK-MEL-2 melanoma) [µM] | TGI (SK-MEL-2 melanoma) | GI50 (OVCAR-8 ovarian) | TGI (OVCAR-8 ovarian) | GI50 (NCI-H23 lung) | TGI (NCI-H23 lung) | GI50 (HT29 colon) | TGI (HT29 colon) | GI50 (OVCAR-4 ovarian) | TGI (OVCAR-4 ovarian) | GI50 (786-0 renal) [µM] | TGI (786-0 renal) | GI50 (RPMI-8226 leukemia) [µM] | TGI (RPMI-8226 leukemia) [µM] | GI50 (A549 NSCLC) | TGI (A549 NSCLC) | GI50 (M14 melanoma) | TGI (M14 melanoma) | GI50 (K-562 leukemia) [µM] | TGI (K-562 leukemia)
COc1ccc2c(CN3CCCC[C@H]3O)cc3cc4c(cc3c2c1)OCO4 | 0.291 | 0.889 µM | 0.268 µM | 3.94 µM | 0.445 µM | 1.82 µM | 0.274 µM | 1.93 µM | 0.393 µM | 2.99 µM | 0.503 | 6.28 µM | 0.298 | 1.32 | 0.28 µM | 2.82 µM | 0.319 µM | 1.15 µM | 0.364 | 4.35 µM
O=C(O)C1CC2C=CCC(C2)C1 (configuration not stated) | – | > 100 µM | – | > 100 µM | – | > 100 µM | – | > 100 µM | – | > 100 µM | – | > 100 µM | – | > 100 | – | > 100 µM | – | > 100 µM | – | > 100 µM
CCOC(=O)NN1C(=O)C(=P(c2ccccc2)(c2ccccc2)c2ccccc2)C(C(=O)OC)=C1C | – | > 100 µM | – | > 100 µM | – | > 100 µM | – | > 100 µM | – | > 100 µM | – | > 100 µM | – | > 100 | – | > 100 µM | – | > 100 µM | – | > 100 µM
N.N.N.N.O=S([O-])[O-].[Co+3].[N-]=[N+]=[N-] | > 100 | > 100 µM | > 100 µM | > 100 µM | > 100 µM | > 100 µM | > 100 µM | > 100 µM | > 100 µM | > 100 µM | > 100 | > 100 µM | > 100 | > 100 | > 100 µM | > 100 µM | > 100 µM | > 100 µM | > 100 | > 100 µM
O=C1N=C2N=C(c3ccc(Cl)cc3)N(c3ccc(Cl)cc3)N2Sc2ccccc21 | – | > 100 µM | – | > 100 µM | – | > 100 µM | – | > 100 µM | – | > 100 µM | – | > 100 µM | – | > 100 | – | > 100 µM | – | > 100 µM | – | > 100 µM
COc1ccc(C(=O)Cn2c(C(=O)c3ccc(Cl)cc3)nc(-c3ccccc3)c2-c2ccccc2)cc1 | > 100 | > 100 µM | > 100 µM | > 100 µM | > 100 µM | > 100 µM | > 100 µM | > 100 µM | 94.2 µM | > 100 µM | 79.6 | > 100 µM | > 100 | > 100 | 60 µM | > 100 µM | > 100 µM | > 100 µM | > 100 | > 100 µM
CC(C)(O)c1cc(Nc2cc(Oc3cn(C4CC4)nc3C3CCOCC3)ccn2)ccn1 | > 100 | > 100 µM | > 100 µM | > 100 µM | 34.8 µM | > 100 µM | 68 µM | > 100 µM | > 100 µM | > 100 µM | 53.1 | > 100 µM | 33.7 | > 100 | > 100 µM | > 100 µM | 89.1 µM | > 100 µM | 27.5 | > 100 µM
CN(Cc1cnc2nc(N)nc(N)c2n1)c1c(Cl)cc(C(=O)NC(CCC(=O)O)C(=O)O)cc1Cl (configuration not stated) | > 100 | > 100 µM | < 0.01 µM | > 100 µM | 0.0277 µM | > 100 µM | < 0.01 µM | > 100 µM | – | > 100 µM | < 0.01 | > 100 µM | < 0.01 | > 100 | < 0.0116 µM | > 100 µM | < 0.01 µM | > 100 µM | < 0.01 | > 100 µM
O=C(O)CCN1C(=S)CSC1=S | – | > 100 µM | – | > 100 µM | – | > 100 µM | – | > 100 µM | – | > 100 µM | – | > 100 µM | – | > 100 | – | > 100 µM | – | > 100 µM | – | > 100 µM
COC(=O)C1=C(O)c2cc(OC)c(OC)c(OC)c2C(c2ccc3c(c2)OCO3)[C@@H]1C(=O)OC (some centres not stated) | – | > 100 µM | – | > 100 µM | – | > 100 µM | – | 12.7 µM | – | > 100 µM | – | > 100 µM | – | > 100 | – | > 100 µM | – | 10.7 µM | – | > 100 µM
Cc1c(-c2ccc(-c3ccccc3F)cc2)nc2ccc(F)cc2c1C(=O)O | 135 | 148 µM and 909 µM | 0.257 µM and 0.711 µM | 161 µM and 244 µM | 17.4 µM and 35.1 µM | 173 µM and 529 µM | 0.639 µM and 0.5 µM | 142 µM and 235 µM | 41 µM and 81.6 µM | 88.7 µM and 524 µM | 0.5 | 97.7 µM and 291 µM | 0.811 | – | 0.384 µM and 0.679 µM | 78 µM and 99.3 µM and 149 µM | 6.76 µM and 24.4 µM | 111 µM and 219 µM | – | 211 µM and 401 µM
CCOC(=O)c1sc(NC(=O)COc2ccc(/C=C3\CCc4cc(OC)ccc4C3=O)cc2)nc1C | 5.61 | 21.6 µM | 9.5 µM | 34.7 µM | 13.7 µM | 32.4 µM | 13.7 µM | 28.6 µM | 11.8 µM | 27.7 µM | 11.5 | 24.7 µM | 0.684 | 6.64 | 13.1 µM | 35.8 µM | 13.3 µM | 26.2 µM | 3.71 | > 40.3 µM
CC(=O)/C(=N\N=C(N)N)c1ccccc1 | – | > 100 µM | – | > 100 µM | – | > 100 µM | – | > 100 µM | – | > 100 µM | – | > 100 µM | – | > 100 | – | > 100 µM | – | > 100 µM | – | > 100 µM
O=C1C=C(NCCc2ccccc2)c2ccccc2C1=O | – | 5.18 µM | – | 19.7 µM | – | 5.67 µM | – | 7.27 µM | – | 13.4 µM | – | 16.6 µM | – | 67.5 | – | 3.79 µM | – | 2.99 µM | – | 20.4 µM
CCOC(=O)C(Cc1cc(OC)c(CC(C(=O)OCC)C(=O)OCC)cc1OC)C(=O)OCC | – | > 100 µM | – | > 100 µM | – | > 100 µM | – | > 100 µM | – | > 100 µM | – | > 100 µM | – | > 100 | – | > 100 µM | – | > 100 µM | – | > 100 µM
Cc1cccc(C=NC23CC4CC(CC(C4)C2)C3)c1 | – | > 100 µM | – | > 100 µM | – | > 100 µM | – | > 100 µM | – | > 100 µM | – | > 100 µM | – | > 100 | – | > 100 µM | – | > 100 µM | – | > 100 µM
COc1ccccc1/C=C(\NC(=O)c1ccccc1)c1nc2ccccc2[nH]1 | – | > 100 µM | – | > 100 µM | – | > 100 µM | – | > 100 µM | – | > 100 µM | – | > 100 µM | – | 51.7 | – | > 100 µM | – | > 100 µM | – | > 100 µM
